Publication PMC9658316, “Discovery of Mitochondrial Complex I Inhibitors as Anticancer and Radiosensitizer Drugs Based on Compensatory Stimulation of Lactate Release” (Cancers, 2022)
pIC50: −log10 of the molar value.

Legend:
[1] = system: intact CT26 cancer cells; test: Seahorse basal OCR and ECAR in intact (non-permeabilized) CT26 cancer cells; type: cell-based, mouse; conditions: for restoration of OCR / OXPHOS activity in cells exposed to aa compound: intact CT26 cells exposed to aa
Procedure: (§1) L-lactate concentration was measured in a semi-automated manner using CMA Microdialysis AB enzymatic assay and a CMA 600 analyzer (Aurora Borealis, Schoonebeek, The Netherlands) as previously described. Briefly, cells (2 × 10^5 cells per well; 3 wells/condition) were seeded in 12-well plates with 2 mL of their routine culture medium. After 24 h, medium was replaced by 500 µL of DMEM containing 10 mmol/L D-glucose and supplemented with 2 mmol/L L-glutamine and 10% dialyzed FBS (Sigma-Aldrich), in the presence of the compounds or vehicle (DMSO). The initial concentration of L-lactate in the experimental medium was also assessed by including control wells containing only cell culture medium (no cells) on each plate. After incubation for 24 h, extracellular media were collected and deproteinized by centrifugation (15 min, 10,000 rpm, 4 °C) in 10 kDa cut-off filter tubes (VWR, Avantor, Leuven, Belgium). Differences in L-lactate concentrations between control and treated cells were calculated and normalized by the protein content in each well and expressed in µmol/h/mg protein. Oxygen-consumption rate (OCR) was measured using the Seahorse XF96 plate reader as previously reported. Briefly, cells (2 × 10^4 cells per well) were first permeabilized with 1 nM Seahorse XF Plasma Membrane Permeabilizer (#102504-100; Agilent, Machelen, Belgium) and respiration was stimulated by adding 10 mM pyruvate, 5 mM malate, and 2 mM ADP. After baseline OCR determination, compounds were added (to inhibit complex I) followed by 10 mM succinate to fuel complex II and rescue the electron transport chain. In some experiments, the effects of selected hits on basal OCR were evaluated in intact cells (including in the presence of MCT1/2 inhibitor AR-C155858 [29] or methylpyruvate). OCR data were normalized according to protein content in each well.
Since other lactate transporters could be involved, we also used methylpyruvate which can bypass the need for a mitochondrial carrier and mimic the result of lactate oxidation by a mitochondrial LDH or ensure the delivery of pyruvate into the mitochondria matrix. […] In the same experiments carried out on non-permeabilized cancer cells, the extent of basal OCR inhibition in response to 10 µM aa was similar to that observed with 100 nM IACS-010759 (−52 ± 5% and −45 ± 6%, respectively) and mirrored by an increase in extracellular acidification rate (ECAR) (+36 ± 11% and +29 ± 9%, respectively).

[2] = biological target: mitochondrial complex I (Mus musculus, UniProt P03888+Q91WD5+Q9DC70); test: Seahorse OCR in permeabilized CT26 cancer cells, mitochondrial complex I inhibition (Assay #2); type: cell-based; conditions: for pIC50: pyruvate/malate, tested at 1 and 10 µM, read-out: OCR inhib. (IC50); for significant inhibition of complex I: up to 10 µM
Procedure: as §1
(A–D). Graphs depict changes in O2 consumption rate (OCR) measured with the Seahorse technology on permeabilized CT26 cancer cells upon successive addition of pyruvate/malate, the indicated inhibitor and succinate. […] (E,F).

[3] = system: colorectal CT26 cancer cells; test: Compound-induced L-lactate release (Assay #1), CT26; type: cell-based, mouse; conditions: 10 µM; for [LAC] increase: 24 h exposure, L-lactate secretion above basal release; for L-lactate release compared with reference compound aa: 24 h
Procedure: as §1
Figure 3 Compound-induced L-lactate release (Assay #1). Culture medium was collected after 24 h exposure to the indicated compounds (10 µM) and the amount of extracellular L-lactate release was determined in a semi-automated manner; dose-dependent effects of complex I inhibitor IACS are shown on the right (shaded bars). Bar graph depicts the extent of L-lactate secretion above the basal release as determined in the absence of any compound (n = 3, ** p < 0.01 for increased L-lactate release vs. reference compound aa).

[4] = system: CT26 colon cancer cells; test: Growth inhibitory effects on cultured CT26 cells (Presto Blue); type: cell-based, mouse; conditions: CT26 monolayers, 1 µM, 72 h
Description: (§2) Mouse colorectal CT26 and breast 4T1 cancer cells as well as human cervix cancer SiHa and breast MDA-MD-231 cancer cells were acquired from ATCC where they are regularly authenticated by short tandem repeat profiling. They were stored according to the supplier’s instructions and used within 6 months after resuscitation of frozen aliquots. Cancer cells were maintained in DMEM (Life Technologies, ThermoFischer scientific, Merebelke, Belgium) supplemented with 10% heat-inactivated FBS. All cell lines were tested for mycoplasma contamination with the MycoAlert™ Mycoplasma Detection kit (#LT07-318; Lonza, Verviers, Belgium) before being used. Cell integrity was determined by the Trypan Blue exclusion method (using Bürker chambers) while cell growth was assessed by using the Presto Blue reagent (Life Technologies) according to manufacturer’s instructions.
(§3) Figure 4 Mitochondrial complex I activity inhibition (Assay #2). (A–D). Graphs depict changes in O2 consumption rate (OCR) measured with the Seahorse technology on permeabilized CT26 cancer cells upon successive addition of pyruvate/malate, the indicated inhibitor and succinate. OXPHOS I inhibitor IACS was used as a control in the experiments testing reference compound aa (A), and compound aa (10µM) was used as reference for testing au, ah and at derivatives (B–D) (n = 6 per compound). (E,F). Growth inhibitory effects of cultured CT26 (E) and 4T1 […] cancer cells exposed to 100 nM IACS or 1 µM aa, ag, aj and au compounds for 72 h; data represent the reduced extent (expressed as %) of cell viability (determined with Presto Blue) when compared with vehicle conditions (n = 3).

[5] = system: breast 4T1 cancer cells; test: Growth inhibitory effects on cultured 4T1 cells (Presto Blue); type: cell-based, mouse; conditions: 4T1 monolayers, 1 µM, 72 h, compared with CT26
Description: as §2, §3

[6] = system: human cervix Siha cancer cells; test: Growth inhibitory effects on human cancer cells (Presto Blue), SiHa vs MDA-MB-231; type: cell-based; conditions: 1 µM
Description: as §2
Suppl. Figure S3. Growth inhibitory effects of hit compounds on human cancer cells. MDA-M B-231 (A) and Siha (B) cancer cells were exposed to 100 nM IACS or 1 µM aa, ag, aj and au compounds; data represent the reduced extent (expressed as %) of cell viability (determined with Presto Blue) when compared with vehicle conditions (n=3).
(also on this page, place not known: 60Growth inhibitory effects (%) MDA-MB-231 aa au 60Growth inhibitory effects (%))

[7] = system: 3D tumor CT26 spheroids; test: Inhibition of 3D tumor spheroid growth (Assay #3); type: cell-based, mouse; conditions: CT26 spheroids, day 10
Procedure: Spheroids were prepared by seeding 1500 cells/well in Ultra-Low Attachment 96-well plate (Corning, Merck, Hoeilaart, Belgium) in DMEM supplemented with 10% heat-inactivated FBS. Inhibitors were added on day 4 (mean diameter of spheroids: 300 µm) and renewed every 3 days. Spheroid growth was monitored using live-cell phase contrast microscope (Axio Observer, Zeiss, Zaventem, Belgium); spheroid area, density and morphology were measured using ImageJ software. Confocal fluorescence microscopy (LSM510, Zeiss, Zaventem, Belgium) was used for detecting pimonidazole immunostaining as previously reported. Spheroids from a same experiment were imaged with the same gain and exposure settings. In some experiments, OXPHOSi treatment was combined with irradiation using a ^137Cs γ-irradiator (IBL-637; CIS-BioInternational, Saclay, France) as previously described.
Figure 5 Inhibition of 3D tumor spheroid growth (Assay #3). […] Drug exposure without (A) or with irradiation (B) was associated with a significant reduction in spheroid sizes vs. untreated spheroids (not shown).

Structure (SMILES)	[LAC] increase [3] [µmol/h/mg]	pIC50 [2]	other results
Cc1n[nH]c(C)c1Cc1sc2c(c1C(=O)N1C[C@H](O)CO1)c(=O)n(C)c(=O)n2CC(C)C [AR-C155858]			restoration of OCR / OXPHOS activity in cells exposed to aa compound [1]: failed to restore OCR
Cc1nc(-c2nc(-c3ccc(OC(F)(F)F)cc3)no2)nn1Cc1cccc(N2CCC(S(C)(=O)=O)CC2)c1 [IACS-010759, reference compound]			concentration giving the same extent of maximal OCR inhibition [2]: 100 nM; increase in extracellular acidification rate (ECAR) ([1]; non-permeabilized CT26 cells, 100 nM): +29 ± 9%
COC(=O)C(C)=O [Methylpyruvate, methylpyruvate]			restoration of OCR / OXPHOS activity in cells exposed to aa compound [1]: failed to restore OXPHOS activity
NC(=O)c1nnn(Cc2cc(Cl)c(C(=O)c3ccccc3)c(Cl)c2)c1N [ab]	~2	~5.00	
Cc1ccc(C(=O)c2c(Cl)cc(Cn3nnc(C(N)=O)c3N)cc2Cl)cc1 [ac]	~2	~5.00	
Cc1cccc(C(=O)c2c(Cl)cc(Cn3nnc(C(N)=O)c3N)cc2Cl)c1 [ad]	~2	~5.00	
COc1ccc(C(=O)c2c(Cl)cc(Cn3nnc(C(N)=O)c3N)cc2Cl)cc1 [ae]	~2	~5.00	
NC(=O)c1nnn(Cc2cc(Cl)c(C(=O)c3ccc(OC(F)(F)F)cc3)c(Cl)c2)c1N [af]	~2	~5.00	
NC(=O)c1nnn(Cc2cc(Cl)c(C(=O)c3ccc(C(F)(F)F)cc3)c(Cl)c2)c1N [ag]	~4		L-lactate release compared with reference compound aa [3]: more potent inducers of L-lactate release; cytotoxic / growth inhibitory effects [4]: very limited effects; growth inhibitory activity [5]: more significant growth inhibitory activity; antiproliferative effects in Siha compared with MDA-MB-231 cells [6]: Larger antiproliferative effects; spheroid growth inhibition compared with reference compound aa [7]: inhibited spheroid growth to the same extent as compound aa
NC(=O)c1nnn(Cc2cc(Cl)c(C(=O)c3ccc4ccccc4c3)c(Cl)c2)c1N [ah]	~2	~5.00	pattern of OCR inhibition activity relative to aa ([2]; 1 and 10 µM): hypoactive
NC(=O)c1nnn(Cc2cc(Cl)c(CN3CCOCC3)c(Cl)c2)c1N [ai]	~2	< 5.00	significant inhibition of complex I [2]: did not show significant inhibition of complex I
C=CCNC(=O)c1nnn(Cc2cc(Cl)c(C(=O)c3ccc(C(F)(F)F)cc3)c(Cl)c2)c1N [ak]	~0	< 5.00	
NC(=O)c1nnn(Cc2cc(F)c(C(=O)c3ccc(Cl)cc3)c(F)c2)c1N [an]	~4	~5.00	L-lactate release compared with reference compound aa [3]: more potent inducers of L-lactate release; spheroid growth inhibition compared with reference compound aa [7]: inhibited spheroid growth to the same extent as compound aa
CC(=O)c1c(Cl)cc(Cn2nnc(C(N)=O)c2N)cc1Cl [ao]	~2	< 5.00	significant inhibition of complex I [2]: did not show significant inhibition of complex I
Cc1cc(C)cc(Cn2nnc(C(N)=O)c2N)c1 [ap]	~0	< 5.00	
NC(=O)c1nnn(Cc2cc(Cl)cc(Cl)c2)c1N [aq]	~0	< 5.00	
O=C(O)c1cn(Cc2cc(Cl)c(C(=O)c3ccc(Cl)cc3)c(Cl)c2)nn1 [ar]	~0	< 5.00	
NC(=O)c1cn(Cc2cc(Cl)c(C(=O)c3ccc(Cl)cc3)c(Cl)c2)nn1 [as]	~2	< 5.00	significant inhibition of complex I [2]: did not show significant inhibition of complex I
O=C(c1ccc(Cl)cc1)c1c(Cl)cc(Cn2cc(CO)nn2)cc1Cl [av]	~0	< 5.00	
NC(=O)c1cn(Cc2cc(F)c(C(=O)c3ccc(Cl)cc3)c(F)c2)nn1 [aw]	~0	< 5.00	
Nc1c(C(=O)O)nnn1Cc1ccc(NC(=O)c2ccc(Cl)cc2)cc1 [ba]	~0	< 5.00	
Nc1c(C(=O)O)nnn1Cc1cccc(NC(=O)c2ccc(OC(F)(F)F)cc2)c1 [bb]	~0	< 5.00	
CC(C)(C)OC(=O)N1CCC(Nc2cccc(Cn3nnc(C(=O)O)c3N)c2)CC1 [bc]	~0	< 5.00	
Nc1c(C(=O)O)nnn1Cc1cccc(N2CCOCC2)c1 [bd]	~0	< 5.00	
Nc1c(C(=O)O)nnn1Cc1ccccc1NC(=O)c1ccc(OC(F)(F)F)cc1 [be]	~0	< 5.00	
Nc1c(C(=O)O)nnn1Cc1ccccc1N1CCSCC1 [bf]	~0	< 5.00	
NC(=O)c1nnn(Cc2cc(Cl)c(Cc3ccc(C(F)(F)F)cc3)c(Cl)c2)c1N [compound al]	~0	< 5.00	
